# Results published in PMC3565575 (Bioorganic & medicinal chemistry, 2010).
# How the values were obtained:
# [1] = target: sigma-1 receptor (Cavia porcellus, UniProt Q60492); experiment: Sigma-1 receptor competitive binding against; conditions: Sigma 1 K1 values (nM) (± SEM, n=3), R^2 value, guinea pig liver membranes, 10 nM (+)-[3H]-pentazocine, brackets: SEM
# [2] = tested on: SKOV-3 (human ovarian adenocarcinoma); experiment: Multi-plex cytotoxicity assay, SKOV-3; type: cell-based; conditions: SKOV-3 cells
# Sequence of sigma-1 receptor (Q60492 whole entry): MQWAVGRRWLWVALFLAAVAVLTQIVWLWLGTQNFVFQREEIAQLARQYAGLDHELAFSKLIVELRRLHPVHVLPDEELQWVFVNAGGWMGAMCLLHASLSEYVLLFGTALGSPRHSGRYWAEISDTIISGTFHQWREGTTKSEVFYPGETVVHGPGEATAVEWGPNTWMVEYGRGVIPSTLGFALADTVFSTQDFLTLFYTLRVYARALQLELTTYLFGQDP
Structure (SMILES),Ki [1] [nM],Growth inhibition (in words) [2]
"CCCN(Cc1cccc([N+](=O)[O-])c1)C(=O)CCc1ccc(F)cc1 [compound 6, 3-(4-Fluorophenyl)-N-(3-nitrobenzyl)-N-propylpropanamide]",> 100000,
"CCCCN(CCCC)CCCc1ccc(F)cc1 [compound 9, N.N-Dibutyl-3-(4-fluorophenyl)propylamine]",,the only cell line whose growth is inhibited by compound 9
